The text below walks through data of US5495046A, “Alkoxyphenylalkylamine derivatives” (Taisho Pharmaceutical Co., Ltd., priority 1991, dated 1996).

Assay [1] addresses D2 receptor. To be noted: value obtained from spiperone binding; European Journal of Pharmacology, 155, p. 345 (1988); cited from earlier work.
Assay [2] relates to (+) SKF 10047-induced abnormal behaviors. As to the kind of experiment: Antagonism against (+) SKF 10047-induced abnormal behaviors. The following applies: Mus musculus; oral, 35 minutes before (+) SKF10047 30 mg/kg i.p.; stereotypy scores for 40 minutes at intervals of 5 minutes; read-out: ED25. In kind it is in vivo, ICR male mice. On the procedure:
Examination on Antagonism Against (+) SKF 10047-induced Abnormal Behaviors
Preparations were formulated by dissolving 10 mg of each test drug in 1 ml of dimethylsulfoxide, diluting with physiological saline to a concentration of […], and further diluting the obtained solution to 0.01 and 0.001 mg/kg (administration dose: 0.1 ml per 10 g body weight of mouse).
The invention compound A, the comparative drug AA and Rimcazole were each orally administered in doses of 0.03, 0.1, 0.3, 1.0, 3.0 and 10.0 mg/kg. Preparations were formulated by suspending in a 5% solution of acacia.
(+) SKF10047 [(+)-N-allylnormetazocine hydrochloride; manufactured by Sigma] was intraperitoneally administered in a dose of 30 mg/kg. The preparation was formulated by dissolving in physiological saline.
As test animals, ICR male mice (Nippon Charles River) aged 4 to 5 weeks were used. Each group had 10 animals.
Each animal was introduced into a transparent acrylic resin cage (24 cm in length×17.5 cm in width×12 cm in height) and allowed to fully adapt to the environment. 35 minutes after the administration of a preparation of a test drug, (+) SKF10047 was administered. […]] were evaluated for 40 minutes at intervals of 5 minutes and the ED25 (mg/kg) was determined.

Assay [3] deals with sigma receptor. The following applies: cited from earlier work.

Broadly, the IC50 is the concentration needed to halve the response being measured. Take `C[C@@H]1CN(CCCn2c3ccccc3c3ccccc32)C[C@H](C)N1` [Rimcazole]: the IC50 was 86 µM in assay [1] and 1640 nM in assay [3] (data of European Journal of Pharmacology, 155, p. 345 (1988)). Besides, in assay [2], the ED25 stood at 37 mg/kg. Also, in assay [3] (background art statement), the “affinity and specificity for sigma receptor (in words)” value is “restricted”.
